Experimental data reported in the supplement of paper PMC8149375.

Legend:
Details in all cases: treatment: drug + dasatinib (fixed dose, not stated); 5 days
ACHN [1] = experiment: AUC of dose-response viability curve, drug + dasatinib, normalised to DMSO (arbitrary (AUC of normalised viability)); higher = less growth inhibition
Experimental: (§1)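 Primary HTS combination arm: 8 RCC cell lines treated with 8 doses (up to 10 uM) of each library drug plus a fixed dose of dasatinib (dose not stated) for 5 days; viability read by CellTiter-Glo and normalised to DMSO. GI50 was fitted with XLfit, AUC is the area under the dose-response curve, and minimum viability is the lowest fraction of DMSO viability across doses.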

CAKI-1 [2] = experiment: as above
Experimental: as §1

UO-31 [3] = experiment: as above
Experimental: as §1

786-O [4] = experiment: as above
Experimental: as §1

SN12C [5] = experiment: as above
Experimental: as §1

A498 [6] = experiment: as above
Experimental: as §1

769-P [7] = experiment: as above
Experimental: as §1

TK-10 [8] = experiment: as above
Experimental: as §1

ACHN [9] = experiment: minimum viability across doses, drug + dasatinib, relative to DMSO (fraction); higher = less growth inhibition
Experimental: as §1

CAKI-1 [10] = experiment: as above
Experimental: as §1

UO-31 [11] = experiment: as above
Experimental: as §1

786-O [12] = experiment: as above
Experimental: as §1

SN12C [13] = experiment: as above
Experimental: as §1

A498 [14] = experiment: as above
Experimental: as §1

769-P [15] = experiment: as above
Experimental: as §1

TK-10 [16] = experiment: as above
Experimental: as §1

ACHN [17] = experiment: GI50 of drug in presence of dasatinib; higher = less potent
Experimental: as §1

CAKI-1 [18] = experiment: as above
Experimental: as §1

UO-31 [19] = experiment: as above
Experimental: as §1

786-O [20] = experiment: as above
Experimental: as §1

SN12C [21] = experiment: as above
Experimental: as §1

A498 [22] = experiment: as above
Experimental: as §1

769-P [23] = experiment: as above
Experimental: as §1

TK-10 [24] = experiment: as above
Experimental: as §1

GI50 of drug (ACHN [17]) [nM] | GI50 of drug (786-O [20]) [µM] | SMILES | AUC of dose-response viability curve (ACHN [1]) | AUC of dose-response viability curve (CAKI-1 [2]) | AUC of dose-response viability curve (UO-31 [3]) | AUC of dose-response viability curve (786-O [4]) | AUC of dose-response viability curve (SN12C [5]) | AUC of dose-response viability curve (A498 [6]) | AUC of dose-response viability curve (769-P [7]) | AUC of dose-response viability curve (TK-10 [8]) | minimum viability across doses (ACHN [9]) | minimum viability across doses (CAKI-1 [10]) | minimum viability across doses (UO-31 [11]) | minimum viability across doses (786-O [12]) | minimum viability across doses (SN12C [13]) | minimum viability across doses (A498 [14]) | minimum viability across doses (769-P [15]) | minimum viability across doses (TK-10 [16]) | GI50 of drug (CAKI-1 [18]) [nM] | GI50 of drug (UO-31 [19]) [nM] | GI50 of drug (SN12C [21]) [nM] | GI50 of drug (A498 [22]) [µM] | GI50 of drug (769-P [23]) [nM] | GI50 of drug (TK-10 [24]) [nM]
69.5 | > 10 | c1ccc2c(CCNc3ccc(Nc4ccncc4)cc3)c[nH]c2c1 + Cc1nc(Nc2ncc(C(=O)Nc3c(C)cccc3Cl)s2)cc(N2CCN(CCO)CC2)n1 [dasatinib] | 1.1 | 1.49 | 2.3 | 1.39 | 1.86 | 2.32 | 1.69 | 1.83 | 0.00193 | 0.0392 | 0.0188 | 0.00475 | 0.00337 | 0.0451 | 0.0334 | 0.00918 | 143 | 372 | 672 | 0.748 | 280 | 531
20 | > 10 | O=c1cc(-c2cccc3c2Sc2ccccc2S3)oc(N2CCOCC2)c1 + Cc1nc(Nc2ncc(C(=O)Nc3c(C)cccc3Cl)s2)cc(N2CCN(CCO)CC2)n1 [dasatinib] | 1.86 | 2.12 | 3.22 | 2.43 | 2.48 | 3.16 | 2.38 | 2.57 | 0.449 | 0.31 | 0.7 | 0.561 | 0.659 | 0.747 | 0.635 | 0.682 | 4310 | > 10000 | > 10000 | > 10 | > 10000 | > 10000
436 | 0.262 | Cc1cc(Nc2cc(CN3CCOCC3)c3nc(C)c(Cc4ccc(Cl)cc4F)n3n2)[nH]n1 + Cc1nc(Nc2ncc(C(=O)Nc3c(C)cccc3Cl)s2)cc(N2CCN(CCO)CC2)n1 [dasatinib] | 1.75 | 1.73 | 3.83 | 1.65 | 2.1 | 3.43 | 2.24 | 2.43 | 0.0702 | 0.00448 | 0.0199 | 0.00749 | 0.105 | 0.194 | 0.0393 | 0.0211 | 410 | 2610 | 1340 | 4.2 | 1620 | 1950
24.9 | > 10 | CC(C)(C)Cn1c(N)nc2ccc(-c3[nH]c(C(C)(C)C)nc3-c3ccc(F)cc3)nc21.CS(=O)(=O)O.CS(=O)(=O)O + Cc1nc(Nc2ncc(C(=O)Nc3c(C)cccc3Cl)s2)cc(N2CCN(CCO)CC2)n1 [dasatinib] | 1.45 | 2.18 | 3.24 | 2.48 | 2.36 | 3.68 | 2.07 | 2.23 | 0.244 | 0.435 | 0.508 | 0.617 | 0.54 | 0.949 | 0.255 | 0.447 | 4370 | > 10000 | > 10000 | > 10 | 1760 | 5500
50.7 | 0.478 | COc1ccc(-c2ccc3c(N4CCOCC4)nc(N4C[C@@H](C)O[C@@H](C)C4)nc3n2)cc1CO + Cc1nc(Nc2ncc(C(=O)Nc3c(C)cccc3Cl)s2)cc(N2CCN(CCO)CC2)n1 [dasatinib] | 1.33 | 1.56 | 2.56 | 1.93 | 2.03 | 2.77 | 1.75 | 1.87 | 0.0839 | 0.0643 | 0.0195 | 0.176 | 0.196 | 0.252 | 0.136 | 0.168 | 250 | 1100 | 482 | 1.83 | 360 | 379
> 10000 | > 10 | Cn1cc(-c2ccc3nnc(C(F)(F)c4ccc5ncccc5c4)n3n2)cn1 + Cc1nc(Nc2ncc(C(=O)Nc3c(C)cccc3Cl)s2)cc(N2CCN(CCO)CC2)n1 [dasatinib] | 1.87 | 2.24 | 3.52 | 2.54 | 2.34 | 3.2 | 2.32 | 2.6 | 0.499 | 0.592 | 0.923 | 0.566 | 0.614 | 0.854 | 0.469 | 0.646 | > 10000 | > 10000 | > 10000 | > 10 | 7400 | > 10000

SMILES | GI50 of drug (ACHN [17]) [nM] | GI50 of drug (786-O [20]) [µM] | AUC of dose-response viability curve (ACHN [1]) | AUC of dose-response viability curve (CAKI-1 [2]) | AUC of dose-response viability curve (UO-31 [3]) | AUC of dose-response viability curve (786-O [4]) | AUC of dose-response viability curve (SN12C [5]) | AUC of dose-response viability curve (A498 [6]) | AUC of dose-response viability curve (769-P [7]) | AUC of dose-response viability curve (TK-10 [8]) | minimum viability across doses (ACHN [9]) | minimum viability across doses (CAKI-1 [10]) | minimum viability across doses (UO-31 [11]) | minimum viability across doses (786-O [12]) | minimum viability across doses (SN12C [13]) | minimum viability across doses (A498 [14]) | minimum viability across doses (769-P [15]) | minimum viability across doses (TK-10 [16]) | GI50 of drug (CAKI-1 [18]) [nM] | GI50 of drug (UO-31 [19]) [nM] | GI50 of drug (SN12C [21]) [nM] | GI50 of drug (A498 [22]) [µM] | GI50 of drug (769-P [23]) [nM] | GI50 of drug (TK-10 [24]) [nM]
CN1CCN(c2ccc([N+](=O)[O-])c3no[n+]([O-])c23)CC1 + Cc1nc(Nc2ncc(C(=O)Nc3c(C)cccc3Cl)s2)cc(N2CCN(CCO)CC2)n1 [dasatinib] | > 10000 | > 10 | 2.07 | 2.27 | 3.44 | 2.2 | 2.52 | 3.19 | 2.12 | 2.41 | 0.539 | 0.624 | 0.864 | 0.517 | 0.687 | 0.862 | 0.644 | 0.64 | > 10000 | > 10000 | > 10000 | > 10 | > 10000 | > 10000
